# ChEMBL document CHEMBL1275518, “Low penetration of oseltamivir and its carboxylate into cerebrospinal fluid in healthy Japanese and Caucasian volunteers” (Antimicrob Agents Chemother, 2008)
# Key:
# [1] = Cmax in healthy adult plasma at 150 mg, po administered as single dose by LC/MS analysis; type: ADME, organism-based; design: dose 150 mg, route oral; conditions: human
# [2] = Cmax in healthy adult CSF at 150 mg, po administered as single dose by LC/MS analysis; type: ADME, organism-based, Cerebrospinal fluid; design: dose 150 mg, route oral; conditions: human
# [3] = Tmax in healthy adult plasma at 150 mg, po administered as single dose by LC/MS analysis; type: ADME, organism-based; conditions: human
# [4] = Tmax in healthy adult CSF at 150 mg, po administered as single dose by LC/MS analysis; type: ADME, organism-based, Cerebrospinal fluid; conditions: human
# [5] = Clast in healthy adult plasma at 150 mg, po administered as single dose by LC/MS analysis; type: ADME, organism-based; conditions: human, in vivo
# [6] = Clast in healthy adult CSF at 150 mg, po administered as single dose by LC/MS analysis; type: ADME, organism-based, Cerebrospinal fluid; conditions: human, in vivo
# [7] = Tlast in healthy adult plasma at 150 mg, po administered as single dose by LC/MS analysis; type: ADME, organism-based; conditions: human, in vivo
# [8] = Tlast in healthy adult CSF at 150 mg, po administered as single dose by LC/MS analysis; type: ADME, organism-based, Cerebrospinal fluid; conditions: human, in vivo
# [9] = AUC (0 to last) in healthy adult plasma at 150 mg, po administered as single dose by LC/MS analysis; type: ADME, organism-based; design: dose 150 mg, time 0 - last, route oral; conditions: human
# [10] = AUC (0 to last) in healthy adult CSF at 150 mg, po administered as single dose by LC/MS analysis; type: ADME, organism-based; design: dose 150 mg, route oral, time 0 - last; conditions: human
# [11] = Half life in healthy adult plasma at 150 mg, po administered as single dose by LC/MS analysis; type: ADME, organism-based; conditions: human
# [12] = AUC (0 to infinity) in healthy adult plasma at 150 mg, po administered as single dose by LC/MS analysis; type: ADME, organism-based; design: dose 150 mg, time infinity, route oral; conditions: human
# [13] = Apparent oral clearance in healthy adult plasma at 150 mg, po administered as single dose by LC/MS analysis; type: ADME, organism-based; conditions: human
# [14] = Ratio of Cmax in healthy adult CSF to Cmax in healthy adult plasma at 150 mg, po administered as single dose; type: ADME, organism-based; conditions: human
# [15] = Ratio of AUC (0 to last) in healthy adult CSF to AUC (0 to last) in healthy adult plasma at 150 mg, po administered as single dose; type: ADME, organism-based; conditions: human
# [16] = Cmax in healthy adult plasma assessed as oseltamivir carboxylate at 150 mg, po administered as single dose by LC/MS analysis; type: ADME, organism-based; design: dose 150 mg, route oral; conditions: human, in vivo
# [17] = Cmax in healthy adult CSF assessed as oseltamivir carboxylate at 150 mg, po administered as single dose by LC/MS analysis; type: ADME, organism-based, Cerebrospinal fluid; design: dose 150 mg, route oral; conditions: human, in vivo
# [18] = Tmax in healthy adult plasma assessed as oseltamivir carboxylate at 150 mg, po administered as single dose by LC/MS analysis; type: ADME, organism-based; conditions: human, in vivo
# [19] = Tmax in healthy adult CSF assessed as oseltamivir carboxylate at 150 mg, po administered as single dose by LC/MS analysis; type: ADME, organism-based, Cerebrospinal fluid; conditions: human, in vivo
# [20] = Clast in healthy adult plasma assessed as oseltamivir carboxylate at 150 mg, po administered as single dose by LC/MS analysis; type: ADME, organism-based; conditions: human, in vivo
# [21] = Clast in healthy adult CSF assessed as oseltamivir carboxylate at 150 mg, po administered as single dose by LC/MS analysis; type: ADME, organism-based, Cerebrospinal fluid; conditions: human, in vivo
# [22] = Tlast in healthy adult plasma assessed as oseltamivir carboxylate at 150 mg, po administered as single dose by LC/MS analysis; type: ADME, organism-based; conditions: human, in vivo
# [23] = Tlast in healthy adult CSF assessed as oseltamivir carboxylate at 150 mg, po administered as single dose by LC/MS analysis; type: ADME, organism-based, Cerebrospinal fluid; conditions: human, in vivo
# [24] = AUC (0 to last) in healthy adult plasma assessed as oseltamivir carboxylate at 150 mg, po administered as single dose by LC/MS analysis; type: ADME, organism-based; design: dose 150 mg, time 0 - last, route oral; conditions: human, in vivo
# [25] = AUC (0 to last) in healthy adult CSF assessed as oseltamivir carboxylate at 150 mg, po administered as single dose by LC/MS analysis; type: ADME, organism-based, Plasma; design: dose 150 mg, route oral, time 0 - last; conditions: human, in vivo
# [26] = Half life in healthy adult plasma assessed as oseltamivir carboxylate at 150 mg, po administered as single dose by LC/MS analysis; type: ADME, organism-based; conditions: human, in vivo
# [27] = AUC (0 to infinity) in healthy adult plasma assessed as oseltamivir carboxylate at 150 mg, po administered as single dose by LC/MS analysis; type: ADME, organism-based; design: dose 150 mg, time infinity, route oral; conditions: human, in vivo
# [28] = Ratio of Cmax in healthy adult CSF to Cmax in healthy adult plasma assessed as oseltamivir carboxylate at 150 mg, po administered as single dose; type: ADME, organism-based; conditions: human
# [29] = Ratio of AUC (0 to last) in healthy adult CSF to AUC (0 to last) in healthy adult plasma assessed as oseltamivir carboxylate at 150 mg, po administered as single dose; type: ADME, organism-based; conditions: human
structure (smiles),measurement,setting,value
CCOC(=O)C1=C[C@@H](OC(CC)CC)[C@H](NC(C)=O)[C@@H](N)C1.O=P(O)(O)O [OSELTAMIVIR PHOSPHATE],Cmax,[1],115 ng/mL
same,Cmax,[2],2.4 ng/mL
same,Tmax,[3],1 h
same,Tmax,[4],3.5 h
same,Clast,[5],2.1 ng/mL
same,Clast,[6],1.4 ng/mL
same,Tlast,[7],10.5 h
same,Tlast,[8],5.5 h
same,AUC(0-t),[9],308 ng·h/mL
same,AUC(0-t),[10],7.6 ng·h/mL
same,half-life,[11],108 min
same,AUC(0-inf),[12],313 ng·h/mL
same,CL/F,[13],8370 mL/min
same,Kp,[14],2.1%
same,Kp,[15],2.4%
same,Cmax,[16],544 ng/mL
same,Cmax,[17],19 ng/mL
same,Tmax,[18],5 h
same,Tmax,[19],8 h
same,Clast,[20],50.2 ng/mL
same,Clast,[21],14.5 ng/mL
same,Tlast,[22],24 h
same,Tlast,[23],12 h
same,AUC,[24],5540 ng·h/mL
same,AUC,[25],157 ng·h/mL
same,t1/2,[26],5.4 h
same,AUC,[27],5950 ng·h/mL
same,Ratio,[28],3.5%
same,Ratio AUC,[29],2.9%
